In patent EP4257135A1, “BENZIMIDAZOLE DERIVATIVES FOR PULMONARY ARTERIAL HYPERTENSION” (Justus-Liebig-Universität Gießen, priority 2022, dated 2023):

System: FHR-PAH
Assay: Fawn-hooded hypertensive rat model of established PAH, right heart catheterisation and histology
Format: in vivo, Ratten
Details: FHR-PAH rats, three times weekly for two weeks
Description: Um das therapeutische Potenzial der EP300/CREBBP-Hemmung in vivo weiter zu erforschen, haben die Erfinder Versuchstiere in drei verschiedenen Nagetiermodellen mit etablierter PAH mit der Substanz SGC-CBP30 behandelt, wobei SGC-CBP30 durch intra-tracheale Vernebelung über zwei Wochen lang dreimal wöchentlich verabreicht wurde. Es wurden folgende drei verschiedenen Nagetiermodelle für eine PAH (FHR-PAH, MCT-PAH und SuHx-PAH) getestet: • Fawn-hooded hypertensive Ratten (FHR): Das ist ein genetischer Rattenstamm, bei dem PAH im Alter spontan auftritt und der ähnliche PAH-Anomalien aufweist, wie sie bei IPAH bei Menschen nach 40 Wochen auftreten. • Durch Monocrotalin (MCT) induziertes PAH-Rattenmodell. • Ein SUGEN5416/chronische Hypoxie (SuHx)-Rattenmodell für PAH, bei dem die Ratten eine einmalige Injektion von SUGEN5416 erhielten und anschließend einer chronischen Hypoxie (10% O2) ausgesetzt wurden (SuHx-PAH).
Für die MCT-PAH wurden männlichen und weiblichen SD-Ratten (Sprague-Dawley-Ratten) subkutan 60 mg/kg MCT (Sigma, Katalog: C2401) injiziert, um PAH zu induzieren. Bei der SuHx-PAH erhielten SD-Ratten eine einmalige subkutane Injektion von SUGEN5416 (20 mg/kg) und wurden drei Wochen lang einer normobaren Hypoxie ausgesetzt, bevor sie für zwei Wochen an die Raumluft zurückkehrten. Zwei Wochen nach der MCT-Injektion bzw. drei Wochen nach der SUGEN5416-Injektion (sobald PAH festgestellt wurde) wurden die Ratten nach dem Zufallsprinzip in vier Gruppen eingeteilt und erhielten zwei Wochen lang dreimal wöchentlich entweder Vehikel (Verabreichung von 1 % Methylcellulose in destilliertem Wasser oder intratracheale Vernebelung von 4 % DMSO in PBS als Negativkontrolle), SGC-CBP30 (Verabreichung von 10 mg/kg in 1 % Methylcellulose + destilliertem Wasser) oder SGC-CBP30 (intratracheale Vernebelung von 275 nmol/kg in 4 % DMSO + PBS). Einjährige männliche und weibliche FHR-Ratten mit etablierter PAH wurden in dieselben vier Gruppen wie beim MCT-Modell eingeteilt und den selben Behandlungsmethoden unterzogen. Für die Vernebelung wurden die Ratten mit 3%igem Isofluran betäubt. Ein 16-Gauge-Katheter wurde in die Luftröhre eingeführt. Ein Vernebler (Aerogen) wurde an den Katheter angeschlossen, und für jede Behandlung wurde ein Volumen von 50 µl SGC-CBP30 oder dessen Vehikel (als Negativkontrolle) verabreicht. Nach zweiwöchiger Behandlung wurde eine Rechtsherzkatheteruntersuchung bei geschlossenem Thorax durchgeführt, um folgende hämodynamischen Daten zu erfassen: Systolischer Rechtsventrikulärer Druck (RVSP), mittlerer PA-Druck (mPAP), Herzzeitvolumen (CO) und Schlagvolumen (SV). Der Gesamtwiderstand der Lunge (TPR) wurde durch Division von mPAP durch CO ermittelt. Nach der hämodynamischen Messung wurden den Ratten Gewebeproben entnommen. Die Experimente wurden gemäß den Richtlinien des Canadian Council on Animal Care durchgeführt. Alle Protokolle wurden von der institutionellen Ethikkommission für Tiere (Tierschutzausschuss der Universität Laval) geprüft und genehmigt (Protokollnummer 2019-018-2). Alle Experimente folgten den Richtlinien für die präklinische Forschung bei PAH.
Der schwarze Balken zeigt 50 µm an. Die Daten sind als Mittelwert ± SD angegeben und die statistische Analyse wurde mit einem ungepaarten Student's t-Test durchgeführt. FHR, MCT und SU5416/chronische Hypoxie-Ratten: *P<0,05, **P<0,01 und ***P<0,001 gegenüber den mit Vehikel behandelten Gruppen. MCT-Rattenmodell: §P<0,05, §§P<0,01 und §§§P<0,001 gegenüber der unbehandelten Kontrollgruppe. • A: Schematische Darstellung des Versuchsaufbaus für die Behandlung von Fawn-hooded hypertensive Ratten (FHR) mit dem EP300/CREBBP-Inhibitor SGC-CBP30, der selektiv auf die Acetyltransferase EP300/CREBBP wirkt. […]

[1] = intratracheal nebulisation 275 nmol/kg, vs vehicle

Q: Which results are given for COc1ccc(CCc2nc3cc(-c4c(C)noc4C)ccc3n2C[C@H](C)N2CCOCC2)cc1Cl [SGC-CBP30, 2-[2-(3-Chloro-4-methoxyphenyl)ethyl]-5-(3,5-dimethyl-1,2-oxazol-4-yl)-1-[(S)-2-(morpholin-4-yl)propyl]-1H-benzimidazole]?
A: molekulare Marker für Myokardhypertrophie: signifikant abgeschwächt; mediale Wanddicke der distalen PAs (intratracheal nebulisation 275 nmol/kg): signifikant verringert; TPR (intratracheal nebulisation 275 nmol/kg, mPAP divided by CO): signifikanten Senkung; CO [1]: verbesserten sich nach der Behandlung mit der Substanz SGC-CBP30 bei FHR-PAH und MCT-PAH signifikant; RVSP [1]: signifikanten Senkung; SV [1]: verbesserten sich nach der Behandlung mit der Substanz SGC-CBP30 bei FHR-PAH und MCT-PAH signifikant; mPAP [1]: signifikanten Senkung
